Laboratory results reported in US12240844B2 (Voronoi, Inc., priority 2019, dated 2025).

Legend:
[1] = biological target: T1, human GST-CLK1 (129-end) (Homo sapiens, UniProt P49759); assay: GST-CLK1 enzyme inhibition, ADP-Glo kinase assay; type: biochemical; conditions: ATP 10 uM
T1 construct: purified human GST-CLK1 (129-end, Signalchem) enzyme; GST; purchased Signalchem
In short: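 GST-CLK1 (129-end, 3 ng) reacted with 10 uM ATP and substrate in 40 mM Tris-HCl pH 7.4, 20 mM MgCl2, 0.5 mg/mL BSA, 50 uM DTT, 1 h at 25° C. ADP-Glo luminescence normalised to solvent control; IC50 from triplicate data.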

[2] = biological target: T2, human GST-DYRK1A (full length) (Homo sapiens, UniProt Q13627); assay: GST-DYRK1A enzyme inhibition, ADP-Glo kinase assay; type: biochemical; conditions: read-out: DYRK1 IC50
T2 construct: purified human GST-DYRK1A (full length, Thermo scientifics) enzyme; GST; purchased Thermo scientifics
In short: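 Full-length human GST-DYRK1A (10 ng) incubated with 10 uM ATP and specific substrate for 1 h at 25° C in 40 mM Tris-HCl pH 7.4, 20 mM MgCl2, 0.5 mg/mL BSA, 50 uM DTT. ADP formation read by ADP-Glo luminescence; IC50 (nM) versus solvent control, triplicate.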

[3] = system: SHP-77; assay: SHP-77 cancer cell proliferation inhibition (Cell Titer-Glo); type: cell-based; conditions: Homo sapiens, SHP77, SHP-77 small cell lung cancer cell line, 72 hours
Experimental: (§1) In order to evaluate the cancer cell proliferation inhibitory activity of the compounds of the present invention, the following experiments were performed.
(§2) To evaluate the cancer cell proliferation inhibitory effect, the cell growth rate analysis was performed while culturing MDA-MB-231 cell line (Korean Cell Line Bank #30026) and MDA-MB-468 cell line as the triple-negative breast cancer cell line, and SHP-77 (ATCC #CRL-2195) as the small cell lung cancer cell line in DMEM (HyClone #SH30243) and RPMI medium (HyClone #SH3027.01), respectively. More specifically, the cell lines were each plated at 2000 cells/100 μl in each well of a 96-well flat-bottom plate (coming #3903), and then the example compounds having eleven concentrations which were diluted by ⅓ so that the final concentrations were 10.000000, 3.333333, 1.111111, 0.370370, 0.123457, 0.041152, 0.013717, 0.004572, 0.001524, 0.000508 and 0.000169 μM were treated. After 72 hours, 100 μl of Cell Titer-Glo (Promega G7573) was treated, incubated at RT for 10 minutes, and then luminescence was measured using a microplate reader. The measured luminescence degree was calculated as GI50 using Prism (version 8.2 GraphPad) software.
(§3) In the table below, the following designations were used for the evaluation of proliferation inhibitory activity.

[4] = biological target: LRRK2 (Homo sapiens, UniProt Q5S007); assay: LRRK2 enzyme inhibition, ADP-Glo kinase assay; type: biochemical; set-up: purchased Invitrogen PR8604B
In short: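 Purified human LRRK2 (25 ng) in 40 mM Tris-HCl pH7.4, 20 mM MgCl2, 0.5 mg/ml BSA, 50 μM DTT with 10 μM ATP and substrate ([…]), 2 h at 25° C. Final compound 50 to 0.000001024 μM, 12-point dilution. ADP-Glo luminescence vs solvent control; IC50 (nM).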

[5] = system: MDA-MB-231 cell line; assay: MDA-MB-231 cancer cell proliferation inhibition (Cell Titer-Glo); type: cell-based; conditions: Homo sapiens, MDA-MB-231 triple-negative breast cancer cell line, 72 hours
Experimental: as §1, §2, §3

[6] = biological target: LRRK2 (G2019S) (Homo sapiens, UniProt Q5S007, G2019S); assay: LRRK2 G2019S enzyme inhibition, ADP-Glo kinase assay; type: biochemical; set-up: purchased SignalChem L10-12GG
In short: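 Purified human LRRK2 G2019S (16 ng) with 25 μM ATP and 0.2 μg substrate, 2 h at 25° C in 40 mM Tris-HCl pH 7.4, 20 mM MgCl2, 0.5 mg/ml BSA, 50 μM DTT; compound at 12 final concentrations from 50 μM downward. ADP-Glo luminescence versus solvent control gave IC50 (nM).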

[7] = system: human DYRK1A and Tau; assay: Tau phosphorylation inhibition, ClariCELL Kinase Cell-Based Assay (Carnabio)
Experimental: Tau phosphorylation inhibitory efficacy was measured using the ClariCELL™ Kinase Cell-Based Assay service of Carnabio, located in the United States. The compounds are exposed to human embryonic kidney ([…]) cells transiently expressing human DYRK1A and Tau, and then the cells are lysed to release cellular proteins. At this time, the released Tau is captured on a plate, and the degree of phosphorylation is quantified by ELISA using an antibody specific for Tau phosphorylation.

Sequence of LRRK2 (Q5S007 970-2527 limits assumed): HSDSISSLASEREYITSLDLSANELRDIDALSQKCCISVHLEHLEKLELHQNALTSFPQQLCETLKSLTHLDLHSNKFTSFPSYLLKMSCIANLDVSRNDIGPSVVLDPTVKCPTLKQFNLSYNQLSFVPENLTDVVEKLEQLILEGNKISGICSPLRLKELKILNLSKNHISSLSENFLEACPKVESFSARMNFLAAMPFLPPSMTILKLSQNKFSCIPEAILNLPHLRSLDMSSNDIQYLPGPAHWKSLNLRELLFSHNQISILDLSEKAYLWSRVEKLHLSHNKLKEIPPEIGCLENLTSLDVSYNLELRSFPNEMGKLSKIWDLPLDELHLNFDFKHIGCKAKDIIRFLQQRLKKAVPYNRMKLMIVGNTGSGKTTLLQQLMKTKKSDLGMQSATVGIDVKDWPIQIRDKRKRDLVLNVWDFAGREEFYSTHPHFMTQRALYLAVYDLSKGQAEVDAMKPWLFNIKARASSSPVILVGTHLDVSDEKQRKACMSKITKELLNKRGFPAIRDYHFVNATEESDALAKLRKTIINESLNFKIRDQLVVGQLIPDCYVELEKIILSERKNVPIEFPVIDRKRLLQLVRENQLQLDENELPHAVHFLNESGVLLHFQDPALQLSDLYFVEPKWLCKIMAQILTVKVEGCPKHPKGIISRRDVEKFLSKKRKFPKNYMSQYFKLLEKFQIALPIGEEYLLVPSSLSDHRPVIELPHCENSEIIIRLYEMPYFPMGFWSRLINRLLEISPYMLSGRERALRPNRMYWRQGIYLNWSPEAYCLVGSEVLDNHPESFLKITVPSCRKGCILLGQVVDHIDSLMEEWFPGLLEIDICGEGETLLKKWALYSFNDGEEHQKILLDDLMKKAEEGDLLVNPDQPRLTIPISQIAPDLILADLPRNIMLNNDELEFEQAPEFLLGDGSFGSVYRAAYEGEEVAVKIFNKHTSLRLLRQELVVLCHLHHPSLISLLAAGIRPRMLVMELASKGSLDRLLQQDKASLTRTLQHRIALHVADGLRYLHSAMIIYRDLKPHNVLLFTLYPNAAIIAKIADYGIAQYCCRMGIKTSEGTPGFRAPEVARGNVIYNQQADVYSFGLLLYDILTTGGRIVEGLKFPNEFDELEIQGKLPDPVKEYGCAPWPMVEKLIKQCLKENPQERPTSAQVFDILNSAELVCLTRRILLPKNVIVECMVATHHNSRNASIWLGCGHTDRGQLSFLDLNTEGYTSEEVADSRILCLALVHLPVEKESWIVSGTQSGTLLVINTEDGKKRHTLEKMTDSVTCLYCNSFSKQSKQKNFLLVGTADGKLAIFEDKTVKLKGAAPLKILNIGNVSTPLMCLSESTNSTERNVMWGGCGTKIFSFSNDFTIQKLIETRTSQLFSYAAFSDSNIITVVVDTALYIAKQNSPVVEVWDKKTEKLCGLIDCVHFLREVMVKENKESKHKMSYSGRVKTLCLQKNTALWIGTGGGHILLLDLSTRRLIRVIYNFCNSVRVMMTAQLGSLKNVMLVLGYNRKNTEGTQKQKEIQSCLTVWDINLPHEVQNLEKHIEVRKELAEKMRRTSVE
Sequence of LRRK2 (G2019S) (Q5S007 970-2527 G2019S limits assumed): as the sequence (Q5S007 970-2527 limits assumed) above, with G1050S counted along it
T1 sequence (P49759 129-484 limits assumed): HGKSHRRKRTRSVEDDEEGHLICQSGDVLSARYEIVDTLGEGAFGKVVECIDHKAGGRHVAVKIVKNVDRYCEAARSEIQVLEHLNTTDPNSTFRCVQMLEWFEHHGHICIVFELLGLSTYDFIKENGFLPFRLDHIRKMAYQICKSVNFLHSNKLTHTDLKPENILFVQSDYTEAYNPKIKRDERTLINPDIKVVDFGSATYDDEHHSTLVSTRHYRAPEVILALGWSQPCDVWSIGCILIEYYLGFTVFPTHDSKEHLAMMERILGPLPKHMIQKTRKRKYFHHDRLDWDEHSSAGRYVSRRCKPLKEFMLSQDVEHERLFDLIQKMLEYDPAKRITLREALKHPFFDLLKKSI

IC50 [1] [nM]	IC50 [2] [nM]	GI50 [3] [nM]	IC50 [4] [nM]	GI50 [5] [nM]	IC50 [6] [nM]	Structure (SMILES)	inhibition at 0.25 µM [7] [%]	inhibition at 0.5 µM [7] [%]	inhibition at 1 µM [7] [%]
301 to 1000	301 to 1000	101 to 300	< 100	301 to 1000	–	CCNc1cc(Nc2ccc(S(=O)(=O)N3CCC(N4CCOCC4)CC3)c3c2OCC3)nc2[nH]cc(C(F)(F)F)c12 [Example 104, N^4-ethyl-N^6-(4-((4-morpholinopiperidin-1-yl)sulfonyl)-2,3-dihydrobenzofuran-7-yl)-3-(trifluoromethyl)-1H-pyrrolo[2,3-b]pyridine-4,6-diamine]	–	–	–
301 to 1000	301 to 1000	301 to 1000	301 to 1000	301 to 1000	–	COc1cc(S(=O)(=O)N2CCOCC2)ccc1Nc1cc(NC2CCC2)c2c(C(F)(F)F)c[nH]c2n1 [Example 203, N^4-cyclobutyl-N^6-(2-methoxy-4-(morpholinosulfonyl)phenyl)-3-(trifluoromethyl)-1H-pyrrolo[2,3-b]pyridine-4,6-diamine]	–	–	–
< 100	< 100	–	< 100	301 to 1000	–	COCCNc1cc(Nc2ccc(P3(=O)CCN(C4COC4)CC3)cc2OC)nc2[nH]cc(C(F)(F)F)c12 [Example 41, 4-(3-methoxy-4-((4-((2-methoxyethyl)amino)-3-(trifluoromethyl)-1H-pyrrolo[2,3-b]pyridin-6-yl)amino)phenyl)-1-(oxetan-3-yl)-1,4-azaphosphinane 4-oxide]	–	–	–
301 to 1000	301 to 1000	301 to 1000	–	301 to 1000	101 to 300	CNc1cc(Nc2ccc(S(=O)(=O)N3CCOCC3)cc2OC)nc2[nH]ccc12 [Example 10, N^6-(2-methoxy-4-(morpholinosulfonyl)phenyl)-N^4-methyl-1H-pyrrolo[2,3-b]pyridine-4,6-diamine]	–	–	–
301 to 1000	301 to 1000	301 to 1000	–	301 to 1000	–	COc1cc(S(=O)(=O)N2CCC(N3CCOCC3)CC2)ccc1Nc1cc(NC(C)C)c2c(C(F)(F)F)c[nH]c2n1 [Example 198, N^4-isopropyl-N^6-(2-methoxy-4-((4-morpholinopiperidin-1-yl)sulfonyl)phenyl)-3-(trifluoromethyl)-1H-pyrrolo[2,3-b]pyridine-4,6-diamine]	–	–	–
301 to 1000	301 to 1000	101 to 300	< 100	301 to 1000	–	COC[C@@H](C)Nc1cc(Nc2ccc(S(=O)(=O)N3CCC(N4CCOCC4)CC3)cc2OC)nc2[nH]cc(C(F)(F)F)c12 [Example 196, (R)-N^6-(2-methoxy-4-((4-morpholinopiperidin-1-yl)sulfonyl)phenyl)-N^4-(1-methoxypropan-2-yl)-3-(trifluoromethyl)-1H-pyrrolo[2,3-b]pyridine-4,6-diamine]	–	–	–
< 100	101 to 300	–	< 100	301 to 1000	< 100	O=C(c1ccc(Nc2cc(NC3CC3)c3c(C(F)(F)F)c[nH]c3n2)c2c1OCCO2)N1CCC(N2CCOCC2)CC1 [Example 163, (8-((4-(cyclopropylamino)-3-(trifluoromethyl)-1H-pyrrolo[2,3-b]pyridin-6-yl)amino)-2,3-dihydrobenzo[b] [1,4]dioxin-5-yl)(4-morpholinopiperidin-1-yl)methanone]	–	–	–
< 100	< 100	–	< 100	–	< 100	CNc1cc(Nc2ccc(S(=O)(=O)N3CCC(N4C[C@@H]5C[C@H]4CO5)CC3)cc2OC)nc2[nH]cc(C(F)(F)F)c12 [Example 242, N^6-(4-((4-((1S,4S)-2-oxa-5-azabicyclo[2.2.1]heptan-5-yl)piperidin-1-yl)sulfonyl)-2-methoxyphenyl)-N^4-methyl-3-(trifluoromethyl)-1H-pyrrolo[2,3-b]pyridine-4,6-diamine]	49.8	77.2	108
301 to 1000	101 to 300	–	101 to 300	301 to 1000	–	CCNc1cc(Nc2ccc(P3(=O)CCN(C4COC4)CC3)cc2OC)nc2[nH]cc(C(F)(F)F)c12 [Example 39, 4-(4-((4-(ethylamino)-3-(trifluoromethyl)-1H-pyrrolo[2,3-b]pyridin-6-yl)amino)-3-methoxyphenyl)-1-(oxetan-3-yl)-1,4-azaphosphinane 4-oxide]	–	–	–
< 100	< 100	–	101 to 300	301 to 1000	101 to 300	CNc1cc(Nc2ccc(P3(=O)CCN(C4CCOCC4)CC3)cc2OC)nc2[nH]cc(C(F)(F)F)c12 [Example 216, 4-(3-methoxy-4-((4-(methylamino)-3-(trifluoromethyl)-1H-pyrrolo[2,3-b]pyridin-6-yl)amino)phenyl)-1-(tetrahydro-2H-pyran-4-yl)-1,4-azaphosphinane 4-oxide]	22.8	30.3	49.5
101 to 300	< 100	–	101 to 300	301 to 1000	101 to 300	COCCNc1cc(Nc2ccc(P3(=O)CCN(C4CCOCC4)CC3)cc2OC)nc2[nH]cc(C(F)(F)F)c12 [Example 95, 4-(3-methoxy-4-((4-((2-methoxyethyl)amino)-3-(trifluoromethyl)-1H-pyrrolo[2,3-b]pyridin-6-yl)amino)phenyl)-1-(tetrahydro-2H-pyran-4-yl)-1,4-azaphosphinane 4-oxide]	9.5	29.2	33.3
301 to 1000	101 to 300	301 to 1000	–	301 to 1000	< 100	CNc1cc(Nc2cc(F)c(S(=O)(=O)N3CCC(N4CCOCC4)CC3)cc2OC)nc2[nH]cc(C(F)(F)F)c12 [Example 265, N^6-(5-fluoro-2-methoxy-4-((4-morpholinopiperidin-1-yl)sulfonyl)phenyl)-N^4-methyl-3-(trifluoromethyl)-1H-pyrrolo[2,3-b]pyridine-4,6-diamine]	–	–	–
< 100	< 100	–	< 100	–	< 100	CCNc1cc(Nc2ccc(C(=O)N3CC[C@H](N4CCOCC4)C3)c3c2OCC3)nc2[nH]cc(C(F)(F)F)c12 [Example 215, (S)-(7-((4-(ethylamino)-3-(trifluoromethyl)-1H-pyrrolo[2,3-b]pyridin-6-yl)amino)-2,3-dihydrobenzofuran-4-yl)(3-morpholinopyrrolidin-1-yl)methanone]	30	70.8	82
301 to 1000	301 to 1000	301 to 1000	301 to 1000	301 to 1000	–	COc1cc(S(=O)(=O)N2CCC(N3CCOCC3)CC2)ccc1Nc1cc(NC2CCC2)c2c(C(F)(F)F)c[nH]c2n1 [Example 202, N^4-cyclobutyl-N^6-(2-methoxy-4-((4-morpholinopiperidin-1-yl)sulfonyl)phenyl)-3-(trifluoromethyl)-1H-pyrrolo[2,3-b]pyridine-4,6-diamine]	–	–	–
301 to 1000	101 to 300	301 to 1000	101 to 300	301 to 1000	–	CCOc1cc(Nc2ccc(S(=O)(=O)N3CCC(N4CCOCC4)CC3)cc2OC)nc2[nH]cc(C(F)(F)F)c12 [Example 232, 4-ethoxy-N-(2-methoxy-4-((4-morpholinopiperidin-1-yl)sulfonyl)phenyl)-3-(trifluoromethyl)-1H-pyrrolo[2,3-b]pyridin-6-amine]	–	–	–
